Data as given in US9414589B2, “N-cyclylamides as nematicides” (SYNGENTA PARTICIPATIONS AG, priority 2012, dated 2016).

What was measured:
[1] = system: Meloidogyne spp. (Root-knot nematode); test: Meloidogyne spp. contact activity, preventive, pouch test (cucumber); format: in vivo; settings: cucumber seed in pouch, test solutions at 200 ppm, galls per root system after twelve days; cis vs trans isomers
Description: (§1) Meloidogyne spp. (Root-knot nematode) contact activity, preventive. Pouch test. Filter papers (9 cm×4.5 cm) with a small pocket were placed into plastic pouches (12 cm×6 cm). One cucumber cv. Toshka seed was placed in the centre of the filter paper pocket of all the pouches needed for a test. The cucumber seeds in the pouches were treated with test solutions at 200 ppm by pipetting the solution directly over the cucumber seed in the filter paper pocket in the pouch. Prior to application, the compound solution was prepared at twice the concentration required and the egg suspension is prepared with FORL nutrient solution with 3000 eggs/0.5 ml. After applying all the treatments, 3000 eggs (in 0.5 ml of FORL nutrient solution) were pipetted into the pouches. The pouches were incubated in a moist chamber for twelve days and watered regularly to maintain good filter paper moisture essential for the growing cucumber root system. After this period, the filter paper containing the germinated cucumber seedling was removed from the plastic pouch to assess the number of galls caused by Meloidogyne spp. per root system. […] Meloidogyne spp. (Root-knot nematode) contact activity, preventive, drench test. Cucumber cv. Toshka seeds were sown directly into pots filled with a sandy substrate. Six days later pots were each treated with 5 ml of a WP10 suspension of the test compound at 20 ppm. Hereafter pots were inoculated with 3000 eggs of M. incognita. The trial was harvested fourteen days after trial application and inoculation. Root galling was assessed according to Zeck's gall index (Zeck, 1971).

[2] = system: Meloidogyne spp. (Root-knot nematode); test: Meloidogyne spp. contact activity, preventive, drench test (cucumber in pots); format: in vivo, M. incognita; settings: cis vs trans isomers
Description: as §1, with “Filter” for “Meloidogyne spp. (Root-knot nematode) contact activity, preventive. Pouch test. Filter”

O=C(N[C@@H]1CCC1c1ccc(Cl)cc1Cl)c1ccccc1C(F)(F)F (some centres unmarked) [57.009]
Nem 1 (Meloidogyne spp. contact activity, preventive, pouch test; % galling) [1]: 100%
melting point: 126 to 128 °C

O=C(N[C@H]1CCC1c1ccc(Cl)cc1Cl)c1ccccc1C(F)(F)F (stereo partly drawn) [57.009trans]
Nem 1 (Meloidogyne spp. contact activity, preventive, pouch test; % galling) [1]: 68%
melting point: 147 to 148 °C
Nem 2 (Meloidogyne spp. contact activity, preventive, drench test; % galling) [2]: 48%

O=C(NC1CCC1c1ccc(Cl)cc1Cl)c1cccnc1C(F)(F)F (centres unmarked) [57.011]
Nem 1 (Meloidogyne spp. contact activity, preventive, pouch test; % galling) [1]: 100%
Nem 2 (Meloidogyne spp. contact activity, preventive, drench test; % galling) [2]: 100%

O=C(NC1CCC1c1ccc(Cl)cc1Cl)c1ncccn1 (centres unmarked) [57.012]
Nem 1 (Meloidogyne spp. contact activity, preventive, pouch test; % galling) [1]: 98%
Nem 2 (Meloidogyne spp. contact activity, preventive, drench test; % galling) [2]: 83%

O=C(NC1CCC1c1ccc(Cl)cc1F)c1c(F)cccc1F (centres unmarked) [57.014]
Nem 1 (Meloidogyne spp. contact activity, preventive, pouch test; % galling) [1]: 93%
Nem 2 (Meloidogyne spp. contact activity, preventive, drench test; % galling) [2]: 100%
